{"source": "paper PMC5444726", "about": "“A CD44-specific peptide, RP-1, exhibits capacities of assisting diagnosis and predicting prognosis of gastric cancer” (Oncotarget, 2017)", "key": {"CD44 protein": {"test_system": "CD44 protein", "details": "peptide screened from 12-mer phage peptide library; ref [25]; cited from earlier work", "excerpt": "The purpose of the current study was to validate the specificity and affinity of RP-1 in both in vitro and in vivo experiment ..."}, "[1]": {"test_system": "MKN-28 cells not expressing CD44 transgenes", "test": "Confocal immunofluorescence of peptide binding to non-CD44 MKN-28 cells", "format": "cell-based, human", "details": "100 μM Alexa Fluor 594 labeled peptide, 20 min, co-culture with CD44-overexpressing cells, confocal microscopy", "procedure": "(§1) Plasmids containing cDNA of CD44 protein were synthesized by GENECHEM, Shanghai, China. Using Pfu polymerase and two oligonucleotides ([…] and […]), the CD44 cDNA was cloned into Xhol and ECOR1 sites of GV146 (GENECHEM, Shanghai, China) by recombinant PCR. Then, CD44-negative MNK-28 cells were transfected with the plasmid with Lipofectamine 2000 reagent (Invitrogen, California, USA), and then the efficiency of CD44 expression in MKN-28 cells was tested. Finally, two cell lines were generated as following: MKN-28-con with no CD44 expression and MKN-28-CD44-ox with CD44 overexpression labeled with enhanced green fluorescent protein (EGFP).\n(§2) For the preparation of confocal laser microscopy, the transfected MNK-28 cancer cells were washed with phosphate buffer saline (PBS) three times, then fixed with 4% paraformaldehyde at ambient temperature for 30 min, and blocked with 5% BSA (w/v) in PBS at 37°C for 1 h. The blocked cells were sequentially incubated with 100 μM RP-1 or WYP labeled with Alexa Fluor 594 for 20 min, and counterstained with 4,6-diamidino-2-phenylindole (DAPI). […] For the evaluation of the correlation of fluorescent intensities between CD44-EGFP and RP-1-Fluor 594, a semi-quantitative analysis was performed with ImageJ 1.48v software (National Institutes of Health, Maryland, USA) by randomly selecting and observing 10 fields of vision. […]"}, "[2]": {"test_system": "CD44 on MKN-28-CD44-ox cells", "test": "Confocal immunofluorescence of peptide binding to CD44-overexpressing MKN-28 cells", "format": "cell-based, human", "details": "100 μM Alexa Fluor 594 labeled peptide, 20 min, fixed cells, confocal microscopy", "procedure": "as §1, §2"}, "[3]": {"test_system": "SGC-7901 subcutaneous xenograft", "test": "In vivo fluorescence imaging and biodistribution in SGC-7901 xenograft mice", "description": "All animal procedures were approved by the Ethics Committee of Xi’an Jiaotong University and conducted in accordance with the Helsinki Declaration (1975). Athymic nude mice (male, 4–5 weeks old, with a body weight of 20–25 g) were obtained from the Animal Experiment Center of Xi’an Jiaotong University, Xi’an, China. The SGC-7901 tumor xenografts were generated by subcutaneous injection of 5–8 × 10^6 SGC-7901 cells suspended in 200 μL culture medium into the left axilla of mice. The cells were allowed to grow for 2 weeks until tumor volume reached an estimate of 1 cm^3.\nIn vivo fluorescence imaging was performed with the IVIS Spectrum Imaging System and analyzed with the IVIS Living Imaging 4.2 software (Xenogen, California, USA). Identical imaging settings (exposure time: 40s; binning: 16; lens aperture [f/stop]: 4; field of view: 13.3) were used for capturing images. Fluorescent intensity was normalized and presented as (p/sec/cm^2/sr)/(μW/cm^2). The mice from the experimental group (n = 10) and control group (n = 10) were intravenously injected with 1 mg/kg FITC-RP-1 and FITC-WYP, respectively. Mice anesthetized with isoflurane were subjected to optical imaging at each hour since 1h after injection. Finally, solid tumors, tissues, and organs were all harvested and rinsed with PBS for further analysis of the distribution of FITC-RP-1."}, "SGC-7901 tumor tissue": {"test_system": "SGC-7901 tumor tissue", "test": "Fluorescence microscopy of frozen xenograft sections after injection", "format": "in vivo, athymic nude mice", "details": "3 h after i.v. injection of peptide", "procedure": "Once fluorescence signal reached its peak at the site of tumor, subcutaneous tumor tissues were harvested for further experiment. After shock-frozen with liquid nitrogen, tumor tissues were cut into 5 μm sections and fixed in 4% paraformaldehyde at ambient temperature for 30 min. The coverslips were mounted with glycerol–gelatin containing anti-fading buffer (Bioworld, Minnesota, USA). Finally, the fluorescence images of frozen sections were captured with a fluorescent microscope (Nikon-Eclipse, Tokyo, Japan)"}, "[4]": {"details": "excised tissue, 3 h after i.v. FITC-RP-1, 1 μg/g"}}, "data": [{"sequence": "WHPWSYLWTQQA [RP-1, CD44-specific peptide … screened from a 12-mer phage peptide library]", "values": [{"measurement": "binding to CD44 protein", "setting": "CD44 protein", "value": "can specifically bind to CD44 protein"}, {"measurement": "binding of peptide to cells without CD44", "setting": "[1]", "value": "bound considerably lower amounts of RP-1 peptide"}, {"measurement": "binding of peptide to CD44 on the cell membrane", "setting": "[2]", "value": "apparent binding of RP-1 peptides to CD44 on the cell membrane"}, {"measurement": "organs with accumulation (fluorescence of excised tissues)", "setting": "[3]; 3 h after i.v. injection of FITC-labeled peptide, 1 μg/g", "value": "accumulation of RP-1 in tumor tissue and liver"}, {"measurement": "fluorescence signal remaining (elimination)", "setting": "[3]; 6 h after intravenous injection", "value": "almost undetectable"}, {"measurement": "fluorescent intensity, kidney", "setting": "[3]; [4]", "value": "2.00 × 10^8 (p/sec/cm^2/sr) /(μW/cm^2)"}, {"measurement": "fluorescent intensity, liver", "setting": "[3]; [4]", "value": "5.58 × 10^8 (p/sec/cm^2/sr) /(μW/cm^2)"}, {"measurement": "fluorescent intensity, stomach", "setting": "[3]; [4]", "value": "2.28 × 10^8 (p/sec/cm^2/sr) /(μW/cm^2)"}, {"measurement": "fluorescent intensity, tumor", "setting": "[3]; excised tissue, 3 h after i.v. FITC-RP-1, 1 μg/g, tumor vs other organs P < 0.001", "value": "1.14 × 10^9 (p/sec/cm^2/sr) /(μW/cm^2)"}, {"measurement": "fluorescence on tumor cells in frozen sections", "setting": "SGC-7901 tumor tissue", "value": "fluorescence signals were observed both on cell membrane and in cytoplasm"}]}]}
